{"source": "ChEMBL document CHEMBL1201862", "about": "“PubChem BioAssay data set” (2004)", "key": {"[1]": {"target": "G-protein coupled receptor 183 (Homo sapiens, UniProt P32249)", "sequence (P32249 whole entry)": "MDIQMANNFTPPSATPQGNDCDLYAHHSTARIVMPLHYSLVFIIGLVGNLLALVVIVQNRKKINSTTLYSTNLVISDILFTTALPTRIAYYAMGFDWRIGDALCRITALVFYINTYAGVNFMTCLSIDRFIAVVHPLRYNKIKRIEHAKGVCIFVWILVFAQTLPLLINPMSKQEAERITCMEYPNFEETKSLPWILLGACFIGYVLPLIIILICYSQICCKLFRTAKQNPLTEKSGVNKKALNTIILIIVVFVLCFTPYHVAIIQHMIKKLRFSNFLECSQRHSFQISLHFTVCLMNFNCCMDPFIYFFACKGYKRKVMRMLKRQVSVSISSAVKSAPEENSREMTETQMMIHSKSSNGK", "assay": "Dose-response confirmation of small molecule antagonists of the EBI2 receptor via a luminescent beta-arrestin assay.", "assay_type": "functional"}, "Beta-galactosidase": {"target": "Beta-galactosidase (Escherichia coli, UniProt Q8VNN2)", "sequence (Q8VNN2 whole entry)": "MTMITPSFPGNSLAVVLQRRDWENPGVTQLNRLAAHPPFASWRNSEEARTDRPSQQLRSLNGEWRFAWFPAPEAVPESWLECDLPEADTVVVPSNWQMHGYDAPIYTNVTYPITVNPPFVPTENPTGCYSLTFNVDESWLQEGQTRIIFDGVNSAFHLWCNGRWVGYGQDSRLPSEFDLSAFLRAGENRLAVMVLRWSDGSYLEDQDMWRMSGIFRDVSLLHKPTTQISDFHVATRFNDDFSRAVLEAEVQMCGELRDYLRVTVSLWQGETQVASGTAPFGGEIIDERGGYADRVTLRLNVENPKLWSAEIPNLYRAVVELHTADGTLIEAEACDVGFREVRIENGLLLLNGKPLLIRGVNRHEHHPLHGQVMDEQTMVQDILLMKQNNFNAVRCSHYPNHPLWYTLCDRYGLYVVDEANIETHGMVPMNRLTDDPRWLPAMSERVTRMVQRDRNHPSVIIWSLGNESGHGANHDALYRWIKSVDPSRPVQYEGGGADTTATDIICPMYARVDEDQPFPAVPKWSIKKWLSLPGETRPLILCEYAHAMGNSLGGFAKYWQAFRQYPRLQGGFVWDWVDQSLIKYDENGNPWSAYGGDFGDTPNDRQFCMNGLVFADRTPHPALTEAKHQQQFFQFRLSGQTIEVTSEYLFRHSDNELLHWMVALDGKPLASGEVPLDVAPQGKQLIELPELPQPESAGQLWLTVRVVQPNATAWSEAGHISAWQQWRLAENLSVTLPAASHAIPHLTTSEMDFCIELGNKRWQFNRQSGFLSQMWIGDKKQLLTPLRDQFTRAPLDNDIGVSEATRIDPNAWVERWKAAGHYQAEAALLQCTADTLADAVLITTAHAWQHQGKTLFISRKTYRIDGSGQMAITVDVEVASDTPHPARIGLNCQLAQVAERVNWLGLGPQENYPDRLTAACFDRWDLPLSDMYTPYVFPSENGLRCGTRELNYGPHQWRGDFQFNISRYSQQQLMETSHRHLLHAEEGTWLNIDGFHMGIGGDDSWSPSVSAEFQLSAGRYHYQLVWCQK", "assay": "Dose response counterscreen for EBI2 assay utilizing the enzyme, b-galactosidase.", "assay_type": "functional"}, "[2]": {"assay": "A375 melanoma cell viability loss, dose response, counter-screen for MITF inhibitor project, CellTiter-Glo luminescence, dry powder, set 4 (AID 624364);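 note: A375 melanoma cells are MITF independent so this is a counter screen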", "assay_type": "functional, cell-based", "conditions": "A-375"}, "[3]": {"target": "T1, Heat shock factor protein 1 (Mus musculus, UniProt P38532)", "T1 sequence (P38532 whole entry)": "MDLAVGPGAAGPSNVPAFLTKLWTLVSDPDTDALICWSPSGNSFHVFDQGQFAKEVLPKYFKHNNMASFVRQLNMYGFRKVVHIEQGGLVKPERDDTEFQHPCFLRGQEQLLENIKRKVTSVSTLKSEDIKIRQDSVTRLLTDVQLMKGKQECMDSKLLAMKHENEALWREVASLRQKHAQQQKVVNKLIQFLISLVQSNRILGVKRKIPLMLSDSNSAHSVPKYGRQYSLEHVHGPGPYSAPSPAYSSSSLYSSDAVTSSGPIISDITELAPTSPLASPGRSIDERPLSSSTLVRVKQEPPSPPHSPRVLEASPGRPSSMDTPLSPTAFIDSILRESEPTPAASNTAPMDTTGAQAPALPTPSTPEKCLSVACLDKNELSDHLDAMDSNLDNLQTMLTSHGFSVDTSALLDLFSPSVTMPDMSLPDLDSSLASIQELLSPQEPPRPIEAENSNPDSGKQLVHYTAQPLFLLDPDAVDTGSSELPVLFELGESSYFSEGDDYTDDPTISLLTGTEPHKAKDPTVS", "assay": "HSF1 potentiators in luciferase reporter cells, confirmation, cell-based, NIH3T3, luminescence, dose retest (AID 435004);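 note: stress induced by proteasome inhibitor MG132 added 30 min after compound; actives raise luminescence as potentiators of the MG132 stress response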", "assay_type": "functional"}, "[4]": {"assay": "A375 melanoma cell cytotoxicity, dose response, counter-screen for MITF inhibitor project, CellTiter-Glo luminescence, dry powder, set 6 (AID 624488)", "assay_type": "functional, cell-based"}, "Nonstructural protein 1": {"target": "Nonstructural protein 1 (Influenza A virus, UniProt Q194T2)", "sequence (Q194T2 whole entry)": "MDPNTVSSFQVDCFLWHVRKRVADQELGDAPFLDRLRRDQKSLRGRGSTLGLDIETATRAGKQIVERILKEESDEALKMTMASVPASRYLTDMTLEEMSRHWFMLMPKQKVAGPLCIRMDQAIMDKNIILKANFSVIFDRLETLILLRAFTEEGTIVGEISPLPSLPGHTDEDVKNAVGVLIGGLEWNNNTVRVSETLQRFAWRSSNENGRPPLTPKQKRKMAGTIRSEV", "assay_type": "functional, Influenza A virus (A/California/07/2009(H1N1))"}, "[5]": {"assay": "SK-MEL-5 parental line viability, dose response, MITF inhibitor project, cell-based, CellTiter-Glo, dry powder, set 6 (AID 624429)", "assay_type": "functional"}, "INS1": {"system": "INS1", "assay": "beta cell apoptosis inhibitors, cytokine rescue, dose response, luminescence, retest (AID 449756);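 note: cell death triggered by IL-1 beta plus TNF-alpha plus IFN-gamma mixture; protective hits raise ATP signal compared with cytokine alone wells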", "assay_type": "functional, cell-based", "conditions": "Rattus norvegicus"}, "[6]": {"assay": "A375 melanoma cell viability loss, dose response, counter-screen for MITF modulator project, CellTiter-Glo luminescence, dry powder, set 9 (AID 651591)", "assay_type": "functional, cell-based", "conditions": "A-375"}, "[7]": {"assay": "A375 melanoma cell cytotoxicity, dose response, counter-screen for MITF inhibitor project, CellTiter-Glo luminescence, dry powder, set 2 (AID 624489);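 note: actives are compounds lowering A375 viability meaning general cytotoxicity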", "assay_type": "functional, cell-based", "conditions": "A-375"}, "[8]": {"assay": "A375 melanoma cell cytotoxicity, dose response, counter-screen for MITF inhibitor project, CellTiter-Glo luminescence, dry powder, set 7 (AID 624490)", "assay_type": "functional, cell-based", "conditions": "A-375"}, "[9]": {"assay": "cytotoxicity in primary human melanocytes, dose response, cytotoxicity control, cell-based, plate reader, dry powder (AID 651920)", "assay_type": "functional"}, "[10]": {"target": "T2, Calpain-2 catalytic subunit (Sus scrofa, UniProt P43367)", "T2 sequence (P43367 whole entry)": "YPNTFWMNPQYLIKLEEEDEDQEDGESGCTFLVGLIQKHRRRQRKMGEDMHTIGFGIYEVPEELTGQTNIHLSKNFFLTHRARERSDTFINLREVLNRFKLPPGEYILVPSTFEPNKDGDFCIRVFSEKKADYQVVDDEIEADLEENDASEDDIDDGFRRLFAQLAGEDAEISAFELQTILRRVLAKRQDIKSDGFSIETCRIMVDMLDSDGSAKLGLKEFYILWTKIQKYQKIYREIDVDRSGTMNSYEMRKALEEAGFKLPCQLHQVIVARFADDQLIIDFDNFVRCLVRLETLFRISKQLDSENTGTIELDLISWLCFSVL", "assay": "pig calpain II inhibitor potency, dose response, biochemical, fluorogenic peptide substrate (AID 1420)", "assay_type": "functional"}, "[11]": {"assay": "MITF Measured in Cell-Based System Using Plate Reader - 2084-01_Inhibitor_Dose_DryPowder_Activity_Set6.", "assay_type": "functional"}, "[12]": {"assay": "MITF Orthogonal Assay: SK-MEL-5 CTG Assay Measured in Cell-Based System Using Plate Reader - 2084-02_Inhibitor_Dose_DryPowder_Activity_Set5.", "assay_type": "functional"}, "[13]": {"target": "T3, Low molecular weight phosphotyrosine protein phosphatase (Homo sapiens, UniProt P24666)", "T3 sequence (P24666 whole entry)": "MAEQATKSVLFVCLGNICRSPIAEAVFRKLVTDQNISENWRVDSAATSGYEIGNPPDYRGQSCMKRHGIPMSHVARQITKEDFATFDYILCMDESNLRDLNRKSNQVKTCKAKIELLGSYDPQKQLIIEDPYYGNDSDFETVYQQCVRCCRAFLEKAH", "assay": "LMPTP phosphatase inhibitors, dose response, biochemical, OMFP substrate, fluorescence intensity, set 2 (AID 743307)", "assay_type": "functional"}, "[14]": {"target": "T3, Low molecular weight phosphotyrosine protein phosphatase", "assay": "LMPTP phosphatase inhibitors, colorimetric pNPP readout, dose response, orthogonal assay, biochemical, absorbance, pNPP substrate, LMPTP-A isoform, set 2 (AID 743308)", "assay_type": "functional"}, "[15]": {"assay": "inhibitors of Vif binding to APOBEC3G peptide, primary screen, biochemical, TR-FRET, GST-Vif 1-94, biotin-A3G peptide, dose response retest (AID 1117319);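 note: TR-FRET signal of purified GST-Vif binding a biotinylated A3G peptide; inhibitors lower the FRET signal by blocking Vif and A3G binding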", "assay_type": "functional"}, "Protein Tat": {"target": "Protein Tat (Human immunodeficiency virus type 1 group M subtype B (isolate HXB2)(HIV-1), UniProt P04608)", "sequence (P04608 whole entry)": "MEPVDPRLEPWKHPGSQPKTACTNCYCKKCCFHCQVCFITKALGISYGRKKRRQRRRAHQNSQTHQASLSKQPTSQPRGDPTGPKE", "assay_type": "functional"}, "[16]": {"assay": "HepG2 cell cytotoxicity, dose response, cytotoxicity control, cherry-picked samples (AID 1159577)", "assay_type": "functional, cell-based"}, "[17]": {"assay": "P. falciparum Dd2 growth inhibitors, dose response, SYBR Green, cherry-picked samples (AID 1159567)", "assay_type": "functional, cell-based"}}, "note": "Values joined by “and” are separate entries in the source; they are usually repeats but may differ in a detail not shown here. Identical values can stand only once. Active and inactive are the calls of the source.", "data": [{"smiles": "O=C(/C=C/c1ccccc1)N1CCN(S(=O)(=O)c2ccc(F)cc2)CC1", "values": [{"measurement": "IC50", "setting": "[1]", "value": "0.626 µM (active)"}, {"measurement": "IC50", "setting": "Beta-galactosidase", "value": "> 80 µM (inactive)"}]}, {"smiles": "O=C1C=C(Nc2ccccc2)C(=O)c2ccccc21", "values": [{"measurement": "AC50", "setting": "[2]", "value": "> 70 µM (inactive)"}, {"measurement": "EC50", "setting": "[3]", "value": "1.26 µM (active)"}, {"measurement": "AC50", "setting": "[4]", "value": "> 70 µM (inactive)"}, {"measurement": "AC50", "setting": "[4]; A-375", "value": "51.5 µM (active)"}, {"measurement": "IC50", "setting": "Nonstructural protein 1", "value": "81.7 µM (active)"}, {"measurement": "AC50", "setting": "[5]; SK-MEL-5", "value": "2.37 µM (active)"}, {"measurement": "AC50", "setting": "[5]; sk-mel-5", "value": "1.93 µM (active)"}, {"measurement": "AC50", "setting": "INS1", "value": "3.97 µM (active)"}, {"measurement": "AC50", "setting": "[6]", "value": "> 70 µM (inactive)"}, {"measurement": "AC50", "setting": "[7]", "value": "> 70 µM (inactive)"}, {"measurement": "AC50", "setting": "[8]", "value": "> 70 µM (inactive)"}, {"measurement": "AC50", "setting": "[9]", "value": "> 70 µM (inactive)"}, {"measurement": "IC50", "setting": "[10]", "value": "6.16 µM (not active)"}, {"measurement": "AC50", "setting": "[11]", "value": "7.24 µM (active) and 5.31 µM (active)"}, {"measurement": "AC50", "setting": "[12]; SK-MEL-5", "value": "1.53 µM (active)"}, {"measurement": "AC50", "setting": "[12]; sk-mel-5", "value": "1.18 µM (active)"}]}, {"smiles": "c1ccc(-c2nc(N3CCCC3)c3ccccc3n2)cc1", "values": [{"measurement": "IC50", "setting": "[13]", "value": "42.1 µM (inactive)"}, {"measurement": "IC50", "setting": "[14]", "value": "> 80 µM (inactive)"}]}, {"smiles": "COc1cc(/C=C(\\CC(=O)O)c2nc3ccccc3s2)cc(OC)c1O", "values": [{"measurement": "IC50", "setting": "[15]", "value": "> 100 µM (active)"}, {"measurement": "IC50", "setting": "Protein Tat", "value": "> 100 µM (active)"}]}, {"smiles": "N#Cc1ccc(-c2ccc([C@H]3[C@@H]4CN(C(=O)C5CCCC5)C[C@H]3N4)cc2)cc1", "values": [{"measurement": "AC50", "setting": "[16]", "value": "> 39 µM (inactive)"}, {"measurement": "AC50", "setting": "[17]", "value": "7.4 µM (active)"}]}]}
